The values that follow come from patent US6380167B1, “Methods for anti-tumor therapy” (priority 1999, dated 2002).

By IC50 is commonly meant the point on the concentration scale where inhibition reaches its midpoint.

For data set [1] the following is noted: toxic at concentrations above; cited from earlier work.
Data set [2] relates to cells derived from ovarian tumor tissue. Description: Alamer Blue cellular respiration assay on cells derived from ovarian tumor tissue. Format: cell-based. Particulars: Homo sapiens. The source says:
(§1) Excess tissue specimens obtained from a variety of organs and tissues such as colon, lung, kidney, stomach, and buttocks were obtained freshly at the time of surgery and samples were sent for pathological testing. For diagnosis and grading of tissue samples (ie: prior to processing), hematoxylin and eosin stained tissue sections were examined by a pathologist. If the diagnosis and grading of the tissue concurred with the determination made by the surgical pathologist that provided the tissue, then the tissue was used in the screen. If there was no agreement, then two additional pathologists served as referees. If no consensus was reached, then the tissue was discarded. […]
(§2) After tissue processing, the relative purity of the resulting cell suspension was determined by cytological examination after pap staining. […]
(§3) Cell preparations that passed histological and cytological examination for diagnosis, grading, and cell purity were thawed at 37° C. and resuspended in tissue culture medium designed to maintain the cells during the incubation period. The live and dead cells were counted and the cells were diluted in culture medium to 4.0×10^4 live cells/ml for tumor cells and 1.32×10^5 live cells/ml for normal cells. […]
(§4) The kinetics of cellular re-dox reactions were subsequently measured at various times, for example at 3 hours, 3 days, and 5 days post-dye addition. […]

For data set [3] the following is noted: in vivo; cited from earlier work.
For data set [4], the system named is cells isolated from sarcoma patients. Description: Alamer Blue cellular respiration assay on cells isolated from sarcoma patients. Particulars: Homo sapiens. Format: cell-based.
Text: as §1, §2, §3, §4

In a further data set the test system is patient tumor cells. Description: Comparison of cardiac glycosides in the anti-tumor assays. Particulars: cardiac glycosides tested. Format: cell-based, human. The protocol:
Alamer Blue (Accumed International, Westlake Ohio) was then added to the cells at 1/10 the volume of the well, and the cells were further incubated at 37° C. for various times. Alamer Blue dye measures cellular re-dox reactions (ie: cellular respiration) whereby a spectral shift occurs upon reduction of the dye. (Excitation 530 nm; emission 590 nm)
The kinetics of cellular re-dox reactions were subsequently measured at various times, for example at 3 hours, 3 days, and 5 days post-dye addition.

Where [5] appears, read: range over samples, read-out: IC50 (range).

Entries after “also recorded” stand apart in the source; their conditions may differ. Like-named read-outs stand apart in the source and are kept apart here.

With `CC1OC(OC2C(O)CC(O[C@H]3CC[C@]4(C)C5CC[C@]6(C)[C@@H](C7=CC(=O)OC7)CC[C@]6(O)[C@@H]5CC[C@@H]4C3)O[C@@H]2C)C[C@H](O)[C@@H]1OC1CC(O)C(O)[C@@H](C)O1` (some centres unmarked) [digitoxin], the toxic concentration entry in data set [1] was “above 35 ng/ml; also recorded: approximately 46 nM”. For the same molecule, the IC50 in data set [2] (mean, read-out: IC50 (mean)) was 47 nM; in data set [2] (setting [5]), 31 to 126 nM; in data set [4] (mean, read-out: IC50 (mean)), 25 nM; in data set [4] (setting [5]), 13 to 48 nM. In addition, the “bound to plasma proteins” value in data set [3] is given as “greater than 95%”.
Regarding `C[C@H]1O[C@@H](O[C@H]2[C@@H](O)C[C@H](O[C@H]3[C@@H](O)C[C@H](O[C@H]4CC[C@@]5(C)[C@H](CC[C@@H]6[C@@H]5C[C@@H](O)[C@]5(C)[C@@H](C7=CC(=O)OC7)CC[C@]65O)C4)O[C@@H]3C)O[C@@H]2C)C[C@H](O)[C@@H]1O` [digoxin], the “activity in the assays compared with digitoxin” value in the data set with patient tumor cells is listed as “Digitoxin appeared more active in the assays then digoxin”.
The same measure, in the same setting: with `C[C@@H]1O[C@@H](O[C@H]2C[C@@H](O)[C@]3(CO)[C@H]4[C@H](O)C[C@]5(C)[C@@H](C6=CC(=O)OC6)CC[C@]5(O)[C@@H]4CC[C@]3(O)C2)[C@H](O)[C@H](O)[C@H]1O` [oubain] the entry was “equally active”.
